Experimental data published in paper PMC10017518, “Structural basis for bacterial energy extraction from atmospheric hydrogen” (Nature, 2023).

Key:
Huc = target: T1, Huc (Mycolicibacterium smegmatis, UniProt A0QUM6+A0QUM7); experiment: H2 electrode and gas chromatography of H2 consumption; type: biochemical; settings: H2 as donor, 50 mM Tris, 150 mM NaCl, pH 8.0
T1 construct: gene hybA; native host purification, chromosomal N-terminal 2×StrepII tag on HucS, tag kept; 833 kDa oligomer of four HucS2L2 lobes on a HucM tetramer; HucL ~58, HucS ~39, HucM ~18 kDa; with Group 2a [NiFe] hydrogenase large subunit HucL; Huc scaffold and stalk protein HucM
T1 sequence (A0QUM6 2-323): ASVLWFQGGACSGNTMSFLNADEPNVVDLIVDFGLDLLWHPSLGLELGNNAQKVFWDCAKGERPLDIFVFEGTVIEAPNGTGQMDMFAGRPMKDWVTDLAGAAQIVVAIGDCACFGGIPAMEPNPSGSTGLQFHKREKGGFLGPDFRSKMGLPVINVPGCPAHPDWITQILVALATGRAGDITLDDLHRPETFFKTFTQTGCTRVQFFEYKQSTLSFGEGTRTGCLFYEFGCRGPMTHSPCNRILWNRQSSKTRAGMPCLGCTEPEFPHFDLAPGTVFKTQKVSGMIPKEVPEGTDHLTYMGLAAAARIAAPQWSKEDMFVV
T1 sequence (A0QUM7 2-516): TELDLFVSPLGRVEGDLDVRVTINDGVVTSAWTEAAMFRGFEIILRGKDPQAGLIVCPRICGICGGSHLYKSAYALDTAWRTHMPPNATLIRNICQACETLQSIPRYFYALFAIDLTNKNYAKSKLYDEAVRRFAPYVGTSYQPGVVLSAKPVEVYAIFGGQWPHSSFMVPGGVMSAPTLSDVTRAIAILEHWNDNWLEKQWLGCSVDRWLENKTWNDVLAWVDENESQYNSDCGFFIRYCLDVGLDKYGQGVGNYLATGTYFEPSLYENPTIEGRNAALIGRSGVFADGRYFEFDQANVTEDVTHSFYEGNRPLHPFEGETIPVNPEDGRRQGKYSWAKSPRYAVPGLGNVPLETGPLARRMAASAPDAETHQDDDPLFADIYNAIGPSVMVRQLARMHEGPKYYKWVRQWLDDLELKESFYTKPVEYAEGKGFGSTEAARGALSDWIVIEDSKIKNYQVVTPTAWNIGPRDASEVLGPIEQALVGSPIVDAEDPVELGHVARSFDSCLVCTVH
T1 sequence (A0QUM5 1-189 partner): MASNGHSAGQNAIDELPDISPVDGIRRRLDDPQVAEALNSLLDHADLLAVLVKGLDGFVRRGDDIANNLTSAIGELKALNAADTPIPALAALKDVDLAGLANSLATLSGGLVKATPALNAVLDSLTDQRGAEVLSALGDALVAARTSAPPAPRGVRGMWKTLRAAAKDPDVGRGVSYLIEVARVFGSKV

[1] = target: Huc protomer (HucSL heterodimer) (Mycobacterium smegmatis mc2155); experiment: cryo-EM structure; single-particle reconstruction of the purified Huc oligomer (2.19 Å overall) and of the individual HucS2L2 lobe (1.52 Å and 1.67 Å)
[2] = target: the molecule itself; experiment: as above

CC1=CC(=O)c2ccccc2C1=O [menadione]
H2 electrode and gas chromatography of H2 consumption (Huc; 200 µM menadione as electron acceptor): Huc displayed a much higher maximum velocity with menadione

COc1cc(-c2ccc(-n3nc(-c4ccccc4)n[n+]3-c3ccc([N+](=O)[O-])cc3)c(OC)c2)ccc1-n1nc(-c2ccccc2)n[n+]1-c1ccc([N+](=O)[O-])cc1 [nitro blue tetrazolium]
H2 electrode and gas chromatography of H2 consumption (Huc; 200 µM NBT as electron acceptor): using nitro blue tetrazolium (NBT) or the quinone analogue menadione as the electron acceptor

Huc protomer (HucSL heterodimer) (complex)
stoichiometry N [1]: 2

B1: HucM (MSMEG_2261), scaffold subunit of the Mycobacterium smegmatis hydrogenase Huc (natural protein, Mycobacterium smegmatis mc2155, UniProt A0QUM5 1-189, looked up)
chain: T1 sequence (A0QUM5 1-189 partner)
notes: HucM, uncharacterized protein MSMEG_2261 encoded directly upstream of hucS in the huc operon, Mycobacterium smegmatis mc2155; approximately 18 kDa; 188 amino acids printed (residues 80 to 189 are also printed); only residues 20-79 modelled in the cryo-EM map; source: M. smegmatis mc2155 PRC1 HucS-2×StrII, endogenous; in cell lysate and co-purified with HucS (StrepTrap, Superose 6)
stoichiometry N [2]: 4
